Values of other authors, collected in patent US6503496B2, “Non-alcoholic and hypoallergenic face cream for the treatment of razor bumps” (priority 2000, dated 2003).

Legend:
[1] = not given; remark: listed apart in the source

Aluminium Polyhydrate
solubility in alkaline solution (alkaline solution): soluble
solubility in water (water): Practically insoluble

O=C([O-])CN(CCN(CC(=O)[O-])CC(=O)O)CC(=O)[O-].[Na+].[Na+].[Na+] [Trisodium EDTA]
toxicity on the skin [1]: No known toxicity
